How the values were obtained:
AtPORB = biological target: T1, AtPORB (Arabidopsis thaliana, UniProt P21218); experiment: […] K fluorescence emission shift of Pchlide; assay type: binding; settings: 5 µM Pchlide, 15 µM enzyme, 200 µM NADP+, 100 µM OPT lipids, pH 7.1; inactive complex
T1 construct: gene PORB; cloned in a previous study
T1 sequence (P21218 67-401): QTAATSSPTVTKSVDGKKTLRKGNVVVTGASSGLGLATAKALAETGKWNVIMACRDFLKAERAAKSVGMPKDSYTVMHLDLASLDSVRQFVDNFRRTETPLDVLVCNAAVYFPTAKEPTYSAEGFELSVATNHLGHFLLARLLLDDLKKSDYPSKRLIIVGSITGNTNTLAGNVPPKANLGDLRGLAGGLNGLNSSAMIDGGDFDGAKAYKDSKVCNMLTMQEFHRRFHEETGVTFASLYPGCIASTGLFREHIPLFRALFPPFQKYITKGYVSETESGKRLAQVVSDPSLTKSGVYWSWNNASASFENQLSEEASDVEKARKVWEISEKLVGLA

SynPOR = biological target: T2, SynPOR (Synechocystis sp. PCC 6803, UniProt Q59987); experiment: […] K fluorescence emission shift of Pchlide; assay type: binding; settings: 5 µM Pchlide, 15 µM enzyme, 200 µM dinucleotide, no lipids, pH 7.1
T2 construct: gene por; recombinant, E. coli BL21(DE3)pRIL, cloned in a previous study; tag not described here

AtPORB_α10 = tested on: T3, AtPORB_α10; experiment: […] K fluorescence, Chlide/Pchlide ratio after […] s illumination, modified Michaelis-Menten fit; assay type: biochemical, Arabidopsis thaliana; settings: 5 µM Pchlide, 15 µM enzyme, no lipids, pH 7.1, room temperature; apparent analogue of Km
T3 construct: gene PORB; AtPORB with helix alpha10 of SynPOR; pET15b, E. coli

T2 sequence (Q59987 whole entry): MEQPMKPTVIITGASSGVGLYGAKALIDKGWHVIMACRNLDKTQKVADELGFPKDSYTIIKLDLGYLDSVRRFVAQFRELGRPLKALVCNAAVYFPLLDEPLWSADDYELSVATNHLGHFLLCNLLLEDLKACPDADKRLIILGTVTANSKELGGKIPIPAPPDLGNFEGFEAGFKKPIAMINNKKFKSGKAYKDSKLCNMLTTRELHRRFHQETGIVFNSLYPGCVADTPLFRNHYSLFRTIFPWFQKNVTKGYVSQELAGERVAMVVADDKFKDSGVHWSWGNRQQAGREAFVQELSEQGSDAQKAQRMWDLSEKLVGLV

SMILES	77 K fluorescence emission shift of Pchlide (AtPORB)	77 K fluorescence emission shift of Pchlide (SynPOR)	Km (AtPORB_α10)
NC(=O)c1ccc[n+]([C@@H]2O[C@H](COP(=O)(O)OP(=O)(O)OC[C@H]3O[C@@H](n4cnc5c(N)ncnc54)[C@H](OP(=O)(O)O)[C@@H]3O)[C@@H](O)[C@H]2O)c1 [NADP+]	AtPORB:Pchlide can bind NADP^+ in the presence of OPT lipids	Introduction of NADP^+ into the lipid-free mixture induced further red shift	
NC(=O)C1=CN([C@@H]2O[C@H](COP(=O)(O)OP(=O)(O)OC[C@H]3O[C@@H](n4cnc5c(N)ncnc54)[C@H](OP(=O)(O)O)[C@@H]3O)[C@@H](O)[C@H]2O)C=CC1 [NADPH]			22.6 ± 3.3 µM
